Laboratory results from ChEMBL document CHEMBL1140305, “Three-dimensional quantitative structure-activity relationship analyses of beta-lactam antibiotics and tripeptides as substrates of the mammalian H+/peptide cotransporter PEPT1” (J Med Chem, 2005).
Non-standard residues stand in square brackets, D forms with d. Residues, ends and D or L forms follow the SMILES beside them. *: point of attachment. Bip = N[C@@H](Cc1ccc(-c2ccccc2)cc1)C(=O)O; NMeT = CN[C@H](C(=O)O)[C@@H](C)O; OBn = c1ccc(CO*)cc1; Bn = c1ccc(C*)cc1

What follows are compounds tested against T1, Solute carrier family 15 member 1 (Homo sapiens, UniProt P46059) (assay: Binding affinity against membrane transport protein PEPT1 in human Caco-2 cells). Conditions: not given.
T1 sequence (P46059 whole entry): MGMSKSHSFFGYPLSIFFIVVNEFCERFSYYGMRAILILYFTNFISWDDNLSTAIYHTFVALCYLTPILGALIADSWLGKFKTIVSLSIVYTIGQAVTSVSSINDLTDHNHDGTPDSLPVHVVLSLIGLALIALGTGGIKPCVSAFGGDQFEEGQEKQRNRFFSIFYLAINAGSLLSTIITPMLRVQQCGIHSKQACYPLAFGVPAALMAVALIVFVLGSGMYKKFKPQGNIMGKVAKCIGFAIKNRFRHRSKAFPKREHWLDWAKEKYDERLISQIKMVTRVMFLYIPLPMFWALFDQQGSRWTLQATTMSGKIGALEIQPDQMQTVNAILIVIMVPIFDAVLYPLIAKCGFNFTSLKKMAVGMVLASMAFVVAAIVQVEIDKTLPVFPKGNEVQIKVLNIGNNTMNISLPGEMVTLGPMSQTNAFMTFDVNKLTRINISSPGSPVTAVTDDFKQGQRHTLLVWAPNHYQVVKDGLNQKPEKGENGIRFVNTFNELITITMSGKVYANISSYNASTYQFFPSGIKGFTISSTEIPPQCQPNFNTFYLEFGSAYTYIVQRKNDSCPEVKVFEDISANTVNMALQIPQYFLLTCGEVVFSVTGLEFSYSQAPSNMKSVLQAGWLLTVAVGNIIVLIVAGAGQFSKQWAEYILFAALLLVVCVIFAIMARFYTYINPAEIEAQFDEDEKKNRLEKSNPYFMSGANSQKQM
Type: cell-based

Structure (SMILES) | Ki [µM]
[N-]=[N+]=N[C@H](C(=O)NC1C(=O)N2C(C(=O)O)=CCSC12)c1ccccc1 (stereo partly specified) | 15000
C[C@H](N)C(=O)N[C@@H](C)C(=O)N[C@@H](C)C(=O)O | 180
C[C@H](N)C(=O)N[C@@H](C)C(=O)N[C@H](C)C(=O)O | 8300
C[C@@H](N)C(=O)N[C@H](CCCCN)C(=O)O | > 30000
C[C@H](N)C(=O)NC(=O)C1CCCCC1 | 1500
C[C@H](NC(=O)[C@@H](N)Cc1ccc(OCc2ccccc2)cc1)C(=O)O | 90
C[C@H](N)C(=O)N[C@@H](CCCCN)C(=O)O | 210
C[C@H](N)C(=O)N[C@H](CCCCN)C(=O)O | > 30000
C[C@H](NC(=O)[C@H](Cc1ccccc1)NCc1ccccc1)C(=O)O | 20
C[C@H](N)C(=O)N[C@H](Cc1ccccc1)C(=O)N[C@@H](C)C(=O)O | 19000
C[C@H](N)C(=O)N[C@H](C)C(=O)N[C@@H](C)C(=O)O | 17000
C[C@H](NC(=O)[C@H](C)NOC(=O)[C@@H](C)N)C(=O)O | 7900
C[C@@H](N)C(=O)N[C@@H](CCCCN)C(=O)O | 7000
N[C@@H](Cc1c[nH]c2ccccc12)C(=O)NCC(=O)N[C@@H](Cc1ccc(O)cc1)C(=O)O | 240
C[C@@H](N)C(=O)N1CCC[C@H]1C(=O)O | 5000
CC(C)C[C@H](NC(=O)[C@H](Cc1ccccc1)NC(=O)[C@H](C)N)C(=O)O (H-Ala-Phe-Leu-OH) | 100
CC(C)C[C@H](NC(=O)[C@@H]1CCCN1C(=O)[C@H](C)N)C(=O)O (H-Ala-Pro-Leu-OH) | 150
C[C@H](NC(=O)[C@@H](N)CC(=O)OCc1ccccc1)C(=O)O (H-Asp(OBn)-Ala-OH) | 90
NCCCC[C@H](NC(=O)[C@@H](N)CC(=O)O)C(=O)O (H-Asp-Lys-OH) | 860
NCCCC[C@H](NC(=O)[C@@H](N)CCC(=O)O)C(=O)O (H-Glu-Lys-OH) | 510
N[C@@H](CCC(=O)O)C(=O)N[C@@H](Cc1ccccc1)C(=O)N[C@@H](Cc1ccc(O)cc1)C(=O)O (H-Glu-Phe-Tyr-OH) | 200
NCC(=O)N[C@@H](Cc1c[nH]cn1)C(=O)O (H-Gly-His-OH) | 4100

Structure (SMILES) | Ki [µM]
CC[C@H](C)[C@H](N)C(=O)N[C@@H](Cc1ccc(O)cc1)C(=O)O (H-Ile-Tyr-OH) | 120
CC[C@H](C)[C@H](N)C(=O)N[C@H](C(=O)N[C@@H](Cc1ccc(O)cc1)C(=O)O)C(C)C (H-Ile-Val-Tyr-OH) | 200
CC(C)C[C@H](N)C(=O)N[C@@H](C)C(=O)N[C@@H](CCCNC(=N)N)C(=O)O (H-Leu-Ala-Arg-OH) | 110
CC(C)C[C@H](N)C(=O)N[C@@H](CCCN=C(N)N)C(=O)N1CCC[C@H]1C(=O)O (H-Leu-Arg-Pro-OH) | 300
CC(C)C[C@H](N)C(=O)NCC(=O)NCC(=O)O (H-Leu-Gly-Gly-OH) | 390
CC(C)C[C@H](N)C(=O)N1CCC[C@H]1C(=O)N[C@@H](CCCN=C(N)N)C(=O)O (H-Leu-Pro-Arg-OH) | 100
CC(C)C[C@H](N)C(=O)N1CCC[C@H]1C(=O)O (H-Leu-Pro-OH) | 180
CC(C)C[C@H](NC(=O)[C@H]([C@@H](C)O)N(C)C(=O)[C@@H](N)CC(C)C)C(=O)O (H-Leu-[NMeT]-Leu-OH) | 110
C[C@H](NC(=O)[C@@H](N)CCCCN)C(N)=O (H-Lys-Ala-NH2) | 6400
C[C@H](NC(=O)[C@@H](N)CCCCN)C(=O)O (H-Lys-Ala-OH) | 340
NCCCC[C@H](N)C(=O)N[C@@H](CCC(=O)O)C(=O)O (H-Lys-Glu-OH) | 1300
CC(C)C[C@H](NC(=O)[C@H](CC(C)C)NC(=O)[C@@H](N)Cc1ccccc1)C(=O)O (H-Phe-Leu-Leu-OH) | 140
N=C(N)NCCC[C@H](NC(=O)[C@@H]1CCCN1)C(=O)O (H-Pro-Arg-OH) | 2500
O=C(O)CNC(=O)CNC(=O)[C@@H]1CCCN1 (H-Pro-Gly-Gly-OH) | 16000
NCCCC[C@H](NC(=O)[C@H](Cc1ccccc1)NC(=O)[C@@H]1CCCN1)C(=O)O (H-Pro-Phe-Lys-OH) | 2000
O=C(O)[C@@H]1CCCN1C(=O)[C@@H]1CCCN1 (H-Pro-Pro-OH) | 1200
C[C@H](NC(=O)[C@@H](N)COCc1ccccc1)C(=O)O (H-Ser(Bn)-Ala-OH) | 90
C[C@@H](O)[C@H](N)C(=O)N[C@@H](CCCCN)C(=O)N[C@@H](Cc1ccc(O)cc1)C(=O)O (H-Thr-Lys-Tyr-OH) | 1100
C[C@H](NC(=O)[C@@H](N)Cc1c[nH]c2ccccc12)C(=O)O (H-Trp-Ala-OH) | 160
N[C@@H](Cc1c[nH]c2ccccc12)C(=O)N[C@@H](Cc1c[nH]c2ccccc12)C(=O)N[C@@H](Cc1c[nH]c2ccccc12)C(=O)O (H-Trp-Trp-Trp-OH) | 170
N[C@@H](Cc1ccc(O)cc1)C(=O)NCC(=O)NCC(=O)O (H-Tyr-Gly-Gly-OH) | 350
N[C@@H](Cc1ccc(O)cc1)C(=O)N[C@@H](Cc1ccccc1)C(=O)O (H-Tyr-Phe-OH) | 140

Structure (SMILES) | Ki [µM]
CC[C@H](C)[C@H](NC(=O)[C@@H]1CCCN1C(=O)[C@@H](N)Cc1ccc(O)cc1)C(=O)O (H-Tyr-Pro-Ile-OH) | 250
C[C@@H](NC(=O)[C@@H](N)Cc1ccc(O)cc1)C(=O)NCC(=O)O (H-Tyr-[dA]-Gly-OH) | 14000
CC(C)C[C@H](NC(=O)[C@H](C)NC(=O)[C@@H](N)C(C)C)C(=O)O (H-Val-Ala-Leu-OH) | 140
C[C@H](NC(=O)[C@@H](N)Cc1ccc(-c2ccccc2)cc1)C(=O)O (H-[Bip]-Ala-OH) | 10
CC(C)C[C@@H](N)C(=O)NCC(=O)NCC(=O)O (H-[dL]-Gly-Gly-OH) | 25000
CC(C)[C@H](NC(=O)[C@H](N)Cc1ccc(O)cc1)C(=O)NCC(=O)O (H-[dY]-Val-Gly-OH) | 14000
C[C@H](N)C(=O)N1CCCC1C(=O)O (single isomer, unassigned) | 15000
CSCC[C@H](NC(=O)[C@H](CCSC)NC(=O)[C@@H](N)CCSC)C(=O)O (stereo in doubt; 10) | 100
C[C@H](N)C(=O)N[C@@H](C)C(=O)O (stereo in doubt; 47) | 2100
O=C(O)C[C@H](NC(=O)[C@@H]1CCCN1)C(=O)O (stereo in doubt; 64) | 9800
C[C@H](N)C(=O)N[C@@H](C)C(=O)O (stereo in doubt; 110) | 140
CSCC[C@H](NC(=O)[C@H](CCSC)NC(=O)[C@@H](N)CCSC)C(=O)O (stereo in doubt; 119) | 520
Cc1nnc(SCC2=C(C(=O)O)N3C(=O)[C@@H](NC(=O)Cn4cnnn4)[C@H]3SC2)s1 [CEFAZOLIN] | > 30000
CO[C@@]1(NC(=O)Cc2cccs2)C(=O)N2C(C(=O)O)=C(COC(N)=O)CS[C@@H]21 [CEFOXITIN] | 10000
COCC1=C(C(=O)O)N2C(=O)[C@@H](NC(=O)/C(=N\OC)c3csc(N)n3)[C@H]2SC1 [CEFPODOXIME] | > 30000
CC1=C(C(=O)O)N2C(=O)[C@@H](NC(=O)[C@H](N)C3=CCC=CC3)[C@H]2SC1 [CEPHRADINE] | 9800
Cc1onc(-c2ccccc2Cl)c1C(=O)N[C@@H]1C(=O)N2[C@@H]1SC(C)(C)[C@@H]2C(=O)O [CLOXACILLIN] | 2500
Cc1onc(-c2c(F)cccc2Cl)c1C(=O)N[C@@H]1C(=O)N2[C@@H]1SC(C)(C)[C@@H]2C(=O)O [FLOXACILLIN] | 3200
CC1(C)S[C@@H]2[C@H](NC(=O)COc3ccccc3)C(=O)N2[C@H]1C(=O)O [PENICILLIN V] | 21000
CCN1CCN(C(=O)N[C@@H](C(=O)N[C@@H]2C(=O)N3[C@@H]2SC(C)(C)[C@@H]3C(=O)O)c2ccccc2)C(=O)C1=O [PIPERACILLIN] | > 30000

Same assay, conditions: caco-2

Structure (SMILES) | Ki [µM]
CC(C)[C@H](N)C(=O)N1CCC[C@H]1C(=O)N1CCC[C@@H]1C(=O)O | 4300
O=C(O)C[C@H](NC(=O)[C@@H]1CCCN1)C(=O)O (stereo in doubt; 121) | 9800
